# Measured values: US8569335B2, “Compounds derived from taurine, process of their preparation and pharmaceutical compositions containing these” (EMS S.A., priority 2008, dated 2013)
# Where two headings read alike, the source gives them in different places.
# Experiments:
# gastric mucous membrane = assay: Gastric ulcerogenesis (gastric ulcerogenesis index, G.U.I.); format: in vivo; conditions: for alterations / color of the gastric mucous membrane: same animals as paw's edema model; for lesion index (gastric ulcerogenesis index): stomach 6 hours after paw readings, macroscopic and microscopic (640x)
# Experimental: Gastric ulcerogenesis was verified in the same animals of the groups used for the model of paw's edema.
# After 6 hours of the paw's measurement readings, the animals were subjected to euthanasia in CO2, and had their stomach removed, cut open in the longitudinal axis and washed with saline solution. In all experiments, the groups were composed of 6 animals, being kept the desired therapeutic activity, with absence of gastric lesions, and after the LD50 assays, it was concluded that the taurine derived compounds of the present invention are safe. It is worth observing, still, that other organs, such as lungs and intestine, as well as the macroscopic integrity of the other organs were kept preserved.
# Through mucous membrane exposition, it was observed its color and integrity. In the case of lesions existence, they were counted and measured, according to the gastric ulcerogenesis index (G.U.I.) that follows numeric criteria for classification of lesions of the gastric mucous membrane: (lesions<1 mm=1; […]; 2.5 to 3.5 mm=3; 3.5 to 4.5 mm=4 and >4.5 mm=5). The obtained results were reported as averages±E. P. M. The results of the lesion experiment regarding the administration of the compounds of the present invention (embodiments corresponding to the Examples 1, 2 and 3) were neither macroscopically nor microscopically (640×) observed, being reported as lesion index of 0 (zero) value.
# Wistar female rats = conditions: for survival: dosage of 1,000 mg/Kg
# Experimental: Wistar female rats weighting between 200 and 250 g were used. […] To all studied groups, dosages of 1,000 and, alternatively, of 1,500 mg/kg were administered by gavage feeding.
# After fourteen (14) days of administration and observation regarding the toxicity signs of general kind, effects on motion, behavior, breathing, number of deaths and form of occurrence, the animals that have survived were subjected to euthanasia in CO2 and had their organs such as heart, lungs, kidney, liver and stomach removed and weighted. For the analysis of the results were also considered the body weights.
# Wistar rat paw's edema = Wistar rat paw's edema induced by carragenin; format: in vivo; conditions: oral; dosage of 44 mg/kg (example 2), 130 mg/Kg (example 3), 182 mg/Kg (example 1)
# Experimental: 14, p. 2589-99, 2006); ÖZTÜRK, G. et al. (ÖZTÜRK, G. et al. “New analgesic and antiinflammatory agents 4(1H)-pyridinone derivatives”, Europe Journal Medicinal Chemistry, v. 37, n. 10 p. 829-34, 2002); LOLLI, et al. (LOLLI, et al. “A new class of ibuprofen derivatives with reduced gastrotoxicity”, Journal of Medicinal Chemistry, v. 44, p. 3463-68, 2001). Besides these, a paw's edema test was performed using taurine as control of its derived compounds, in the dosage of 10 mg/Kg according to HIRATA, T. et al. (HIRATA, T. et al. “Cyclo-oxygenase isozymes in mucosal ulcergenic and functional responses following barrier disruption in rat stomachs”, British Journal of Pharmacology, v. 122, p. 447-54, 1997).
# In order to confirm the biological activity of the compounds of the present invention, tests were performed according to the pharmacological model of Wistar rat paw's edema using groups of six animals. It was verified that, in the reported concentrations, in the presence of equimolar dosages of the compounds described in the articles above-mentioned, such as referral drugs, a reduction of the inflammatory process with the use of the compounds of the invention was observed.
# The compounds of the present invention were administered 1 (one) hour prior the inoculation of the irritant agent carragenin in the paws of the animals, with the aid of a gavage tube, orally, using water as solvent.
# The control group had the irritant agent carragenin applied to the bottom of their posterior paws and, orally, saline solution. […] Other groups of animals had the taurine derived of the present invention (embodiments corresponding to Examples 1, 2 and 3, respectively—orally) administered 60 minutes prior to the carragenin (bottom of the paw).
# The posterior paws were measured prior to the treatments and at each hour, for 6 hours after the carragenin was administered, using an thickness meter, in order to measure their volume (in mm). The results were expressed by the difference between the paw's measurement readings before and after the treatments.
# [1] = oral administration; literature (Merck Index); cited from earlier work
# gastric ulceration = conditions: pre clinic tests; cited from earlier work
# iNOS = target: T1, iNOS (Homo sapiens, UniProt P35228); assay: nitric oxide production by macrophages stimulated with LPS, indirect nitrite (NO2-) detection; format: cell-based; conditions: 24 hours
# T1 construct: The assay used the maximum production of nitric oxide (macrophages stimulated with LPS); endogenous in cells
# [2] = test system: isolated gastric mucosal cells; conditions: cited from earlier work
# gastric mucosal injury = conditions: rats pre-treated intragastrically with 250 or 500 mg/kg 1 to 3 days before 25 mg/kg indometacin; cited from earlier work
# T1 sequence (P35228 whole entry, species assumed): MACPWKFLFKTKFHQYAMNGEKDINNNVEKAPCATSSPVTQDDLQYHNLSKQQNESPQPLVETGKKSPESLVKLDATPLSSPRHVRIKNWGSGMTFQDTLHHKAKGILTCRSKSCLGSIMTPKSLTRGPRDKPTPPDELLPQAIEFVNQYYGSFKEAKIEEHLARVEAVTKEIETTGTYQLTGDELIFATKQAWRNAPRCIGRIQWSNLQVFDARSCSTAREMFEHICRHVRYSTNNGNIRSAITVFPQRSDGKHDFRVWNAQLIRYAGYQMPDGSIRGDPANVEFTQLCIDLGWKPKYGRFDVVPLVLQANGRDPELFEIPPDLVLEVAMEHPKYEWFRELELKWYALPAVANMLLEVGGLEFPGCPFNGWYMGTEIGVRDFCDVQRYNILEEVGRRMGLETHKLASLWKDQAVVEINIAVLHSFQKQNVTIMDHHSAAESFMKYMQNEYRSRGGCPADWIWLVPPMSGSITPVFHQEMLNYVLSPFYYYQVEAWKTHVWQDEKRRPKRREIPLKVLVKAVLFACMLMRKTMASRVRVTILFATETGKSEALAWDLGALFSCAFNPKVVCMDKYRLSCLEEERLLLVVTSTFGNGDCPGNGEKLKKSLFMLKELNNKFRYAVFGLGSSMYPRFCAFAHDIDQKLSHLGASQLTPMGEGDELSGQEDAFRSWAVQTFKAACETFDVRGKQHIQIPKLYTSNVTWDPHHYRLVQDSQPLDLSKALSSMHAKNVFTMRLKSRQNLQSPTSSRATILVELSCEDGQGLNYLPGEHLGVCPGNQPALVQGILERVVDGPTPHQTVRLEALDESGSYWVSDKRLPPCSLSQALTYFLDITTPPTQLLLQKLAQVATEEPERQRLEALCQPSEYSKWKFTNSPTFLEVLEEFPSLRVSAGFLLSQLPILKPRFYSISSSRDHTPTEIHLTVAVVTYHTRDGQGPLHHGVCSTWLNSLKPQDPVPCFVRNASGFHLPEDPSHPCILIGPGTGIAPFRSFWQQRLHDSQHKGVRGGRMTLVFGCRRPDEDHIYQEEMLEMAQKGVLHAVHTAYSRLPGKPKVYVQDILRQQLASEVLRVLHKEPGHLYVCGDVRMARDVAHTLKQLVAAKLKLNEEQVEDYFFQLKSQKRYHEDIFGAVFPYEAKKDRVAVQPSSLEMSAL
smiles,measurement,setting,value
"CC(C)Cc1ccc(C(C)C(=O)NCCS(=O)(=O)[O-])cc1.[Na+] (stereo not shown) [Compound 27, [2-(4-isobuthylphenyl)propanoyl]amide ethanesulfonic acid]",alterations / color of the gastric mucous membrane,gastric mucous membrane,did not present any color alteration in the mucous membrane
same,alterations / color of the gastric mucous membrane,gastric mucous membrane; listed as Example 1,not observed alterations in the mucous membrane
same,lesion index (gastric ulcerogenesis index),gastric mucous membrane,0
same,deaths,"Wistar female rats; any of the tested dosages (1,000 and 1,500 mg/kg), gavage",no death in any of the tested dosages
same,anti inflammatory activity in paw's edema,Wistar rat paw's edema,anti inflammatory activity
same,LD50,[1],"1,050 mg/Kg"
"COc1ccc2cc(C(C)C(=O)NCCS(=O)(=O)[O-])ccc2c1.[Na+] (stereo not shown) [Compound 63, 2-{[2-(6-methoxy-2-naphthyl)propanoyl]amide}ethanesulfonic acid]",alterations / color of the gastric mucous membrane,gastric mucous membrane,not observed alterations in the mucous membrane
same,lesion index (gastric ulcerogenesis index),gastric mucous membrane,0
same,survival,Wistar female rats; gavage,all animals survived
same,deaths,"Wistar female rats; dosage of 1,500 mg/Kg, gavage",17%
same,anti inflammatory activity in paw's edema,Wistar rat paw's edema,anti inflammatory activity
same,LD50,[1],"1,234 mg/Kg"
COc1ccc2c(c1)c(CC(=O)NCCS(=O)(=O)[O-])c(C)n2C(=O)c1ccc(Cl)cc1.[Na+] [Compound 64],alterations / color of the gastric mucous membrane,gastric mucous membrane,not observed alterations in the mucous membrane
same,lesion index (gastric ulcerogenesis index),gastric mucous membrane,0
same,"weight of the organs (kidney, heart and liver) versus control animals","Wistar female rats; after the toxicity assay, 14 days",substantially close of those obtained with the control animals
same,survival,Wistar female rats; gavage,no animal has died
same,population survived,"Wistar female rats; dosage of 1,500 mg/Kg, gavage",66%
same,anti inflammatory activity in paw's edema,Wistar rat paw's edema,anti inflammatory activity
"COC(=O)[C@@H](N)CCCNC(=N)N[N+](=O)[O-] [L-NAME, N^G-nitro-L-arginine methyl esther]",change in gastric acidity,gastric ulceration,does not affect gastric acidity
same,lesion rate,gastric ulceration,doubles
same,reduction of nitric oxide (measured as nitrite),gastric ulceration,50%
N=C(N)NN [aminoguanidine],inhibition of nitric oxide production (NOS inhibition activity),iNOS,total inhibition of nitric oxide production
"CC(C)Cc1ccc(C(C)C(=O)O)cc1 (stereo not shown) [ibuprophen, reference compound]",alterations / color of the gastric mucous membrane,gastric mucous membrane,color alteration of the mucous membrane
"NCCS(=O)(=O)O [taurine, 2-aminoethanesulfonic acid]",increase of cellular resistance,[2],21%
same,hemorrhagic gastric lesion,gastric mucosal injury,lesion reduction
